Data as given in PubChem BioAssay AID1259338 (Broad Institute, 2017).
Calls of active or inactive are those of the source.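 The calls were made as follows: active = compounds lowering the signal with a fitted AC50 at or below a set concentration limit; inconclusive = flat curve with 30 to 70% inhibition, or a poor fit; inactive = the rest.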

Biological target: Caspase recruitment domain-containing protein 9 (Homo sapiens) + E3 ubiquitin-protein ligase TRIM62 (Homo sapiens) (UniProt Q9H257+Q9BVG3)
Experiment: CARD9/TRIM62 protein interaction inhibitors – cell lysate, HEK293FT lysates, Luminex bead readout, dose response (AID 1259338); as to activity change, negative = inhibition: reference of the scale not given here
Details: Luminex bead PPI, MFI

Chain of Caspase recruitment domain-containing protein 9 (Homo sapiens) + E3 ubiquitin-protein ligase TRIM62 (Homo sapiens) (Q9BVG3 whole entry, looked up, the tested form may be a part): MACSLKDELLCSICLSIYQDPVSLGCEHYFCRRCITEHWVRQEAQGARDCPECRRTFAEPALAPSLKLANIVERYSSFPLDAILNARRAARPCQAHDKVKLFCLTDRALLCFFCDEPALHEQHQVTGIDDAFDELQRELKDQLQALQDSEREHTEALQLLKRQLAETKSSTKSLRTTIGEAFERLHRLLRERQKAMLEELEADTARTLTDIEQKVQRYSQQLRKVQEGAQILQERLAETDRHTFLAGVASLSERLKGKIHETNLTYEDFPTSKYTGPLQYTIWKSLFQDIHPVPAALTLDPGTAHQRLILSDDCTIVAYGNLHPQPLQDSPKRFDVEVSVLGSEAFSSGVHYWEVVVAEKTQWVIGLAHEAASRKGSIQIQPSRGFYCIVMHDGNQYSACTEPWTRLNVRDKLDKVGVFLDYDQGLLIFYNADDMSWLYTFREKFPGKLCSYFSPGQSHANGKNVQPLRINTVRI
Chain of Caspase recruitment domain-containing protein 9 (Homo sapiens) + E3 ubiquitin-protein ligase TRIM62 (Homo sapiens) (Q9H257 whole entry, looked up, the tested form may be a part): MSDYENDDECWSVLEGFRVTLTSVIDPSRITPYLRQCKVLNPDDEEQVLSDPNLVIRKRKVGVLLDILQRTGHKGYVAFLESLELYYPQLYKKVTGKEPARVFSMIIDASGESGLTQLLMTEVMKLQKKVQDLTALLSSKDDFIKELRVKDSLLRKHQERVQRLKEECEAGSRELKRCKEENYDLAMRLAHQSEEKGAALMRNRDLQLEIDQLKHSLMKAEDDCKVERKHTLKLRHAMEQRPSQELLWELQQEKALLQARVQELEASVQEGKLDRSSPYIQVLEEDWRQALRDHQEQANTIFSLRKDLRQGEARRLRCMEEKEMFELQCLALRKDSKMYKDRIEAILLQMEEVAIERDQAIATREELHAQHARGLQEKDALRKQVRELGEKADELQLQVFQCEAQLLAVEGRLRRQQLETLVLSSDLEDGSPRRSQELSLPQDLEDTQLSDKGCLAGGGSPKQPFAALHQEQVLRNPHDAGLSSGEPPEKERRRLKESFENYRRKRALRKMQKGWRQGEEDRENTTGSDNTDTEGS

N#Cc1c(NC(=O)CSc2nc3ccccc3o2)sc2c1CCC2
activity change, negative = inhibition (at 80 µM (top of the series)): inactive

Nc1cc2c(cc1-n1cccc1)OCCO2
activity change, negative = inhibition (at 80 µM (top of the series)): inactive

CCOc1ccc(-n2c3nc4ccccc4nc3c3c(=O)n(Cc4ccco4)cnc32)cc1
activity change, negative = inhibition (at 80 µM (top of the series)): inactive

O=C1C=C(c2ccccc2)Nc2ccccc2N1
AC50: > 160 µM (inactive)

CCN1CCOC(=O)C1CC(=O)Nc1cccc(C)c1 (stereo not given)
activity change, negative = inhibition (at 80 µM (top of the series)): inactive

Cc1cc(C(=O)Nc2nc3c(s2)CCc2ccccc2-3)no1
activity change, negative = inhibition (at 80 µM (top of the series)): inactive

Nc1c(C(=O)NCc2ccco2)c2nc3ccccc3nc2n1CCN1CCOCC1
AC50: > 160 µM (inactive)

CC(CCc1ccco1)N(C)S(=O)(=O)c1ccc2[nH]c(=O)ccc2c1 (stereo not given)
activity change, negative = inhibition (at 80 µM (top of the series)): inactive

COc1ccc(S(=O)(=O)N2CCN(C(=O)c3cc4c(s3)CCC4)CC2)cc1
AC50: 63.1 µM

C[C@H](CO)N1C[C@H](C)[C@@H](CN(C)C(=O)C2CCCCC2)OCCCC[C@H](C)Oc2ccc(NS(=O)(=O)c3ccc(Cl)cc3)cc2C1=O
activity change, negative = inhibition (at 80 µM (top of the series)): inactive

CC1=CCC(C(=O)O)C(C(=O)NC2CCCCC2)C1 (stereo not given)
AC50: 83.4 µM

Cc1ccc(S(=O)(=O)Nc2ccc3c(c2)C(=O)N([C@H](C)CO)C[C@H](C)[C@@H](CN(C)C(=O)C2CCCCC2)OCCCC[C@H](C)O3)cc1
AC50: > 160 µM (inactive)

Cc1ccc(C(=O)Nc2cnc(N3CCC(C(N)=O)(N4CCCCC4)CC3)c(C(=O)O)c2)cc1
AC50: 8.64 µM

O=C(COc1cccnc1[N+](=O)[O-])c1ccc(Cl)s1
activity change, negative = inhibition (at 80 µM (top of the series)): inactive

O=C(NCc1ccco1)C1CCCN(S(=O)(=O)c2cccc3nonc23)C1 (stereo not given)
activity change, negative = inhibition (at 80 µM (top of the series)): inactive

O=C(NCc1ccco1)[C@@H]1CSC2c3ccccc3C(=O)N21 (stereo not given in full)
activity change, negative = inhibition (at 80 µM (top of the series)): inactive

N#Cc1c2c(c(NCc3ccco3)n3c1nc1ccccc13)CCC2
activity change, negative = inhibition (at 80 µM (top of the series)): inactive

O=C(CCn1cncn1)N1CCC(n2cc(-c3ccccn3)nn2)CC1
activity change, negative = inhibition (at 80 µM (top of the series)): inactive

O=C(CCN1CCOCC1)c1ccc2c(c1)OCCO2
activity change, negative = inhibition (at 80 µM (top of the series)): inactive

O=C(Nc1nc(-c2ccco2)c(-c2ccco2)s1)c1ccco1
activity change, negative = inhibition (at 80 µM (top of the series)): inactive

CN(c1ccccc1C(=O)NCc1ccco1)S(C)(=O)=O
activity change, negative = inhibition (at 80 µM (top of the series)): inactive

CCc1ccc(Nc2nc(C(=O)NCc3ccc(N(C)C)cc3)nc3ccccc23)cc1
AC50: 49 µM

C[C@H](CO)N1C[C@H](C)[C@@H](CN(C)CC2CCCCC2)OCCCC[C@H](C)Oc2ccc(NS(=O)(=O)c3ccc(F)cc3)cc2C1=O
AC50: 73 µM

Cc1ccc(-c2nn(-c3ccccc3)cc2CN(Cc2ccccc2)C(=O)CCC(=O)O)o1
activity change, negative = inhibition (at 80 µM (top of the series)): inactive

COc1ccc(-c2ccc(CCC(=O)O)o2)cc1
activity change, negative = inhibition (at 80 µM (top of the series)): inactive

O=C(O)COc1ccc(-n2cccc2)cc1
activity change, negative = inhibition (at 80 µM (top of the series)): inactive

NC(=O)C1(N2CCCCC2)CCN(c2ncc(NC(=O)c3ccccc3)cc2C(=O)O)CC1
AC50: 3.25 µM

O=c1/c(=C/c2ccco2)sc2nc3ccccc3n12
activity change, negative = inhibition (at 80 µM (top of the series)): inactive

O=[N+]([O-])c1ccc2nn(Cc3ccccc3)cc2c1
activity change, negative = inhibition (at 80 µM (top of the series)): inactive

C[C@H](CO)N1C[C@H](C)[C@@H](CN(C)CC2CCCCC2)OCCCC[C@H](C)Oc2ccc(NS(=O)(=O)c3ccc(Cl)cc3)cc2C1=O
activity change, negative = inhibition (at 80 µM (top of the series)): inactive

COCCn1c(C)cc(-c2csc(N)n2)c1C
activity change, negative = inhibition (at 38 µM (top of the series)): inactive

Cc1nn2c(c1-c1ccccc1)NC(c1ccco1)=CC2c1ccco1 (stereo not given)
activity change, negative = inhibition (at 80 µM (top of the series)): inactive

COc1ccc(CNC(=O)c2nc(Nc3ccc(C)cc3)c3ccccc3n2)cc1
activity change, negative = inhibition (at 80 µM (top of the series)): inactive

O=C(Nc1nc(-c2ccco2)c(-c2ccco2)s1)C1CCC1
AC50: 54.7 µM

O=C(NCC1CCCO1)c1cc(-c2ccco2)nc2ccccc12 (stereo not given)
AC50: > 160 µM (inactive)
